Where “and” joins values, the source holds several entries; their conditions need not be identical. Identical values can stand only once.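 Cultured in 96-well plates, cells were exposed to test compound for 48 hours across five concentrations. GI50 = concentration required for 50% inhibition of growth. TGI denotes the concentration required for complete inhibition of growth.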
How the values were obtained:
Test in all cases: DTP human tumour cell line panel, 48 h
[1] = system: SK-MEL-5 melanoma
[2] = system: NCI-H522 lung
[3] = system: UO-31 renal
[4] = system: SK-OV-3 ovarian
[5] = system: NCI-H460 lung
[6] = system: HCT-116 colon
[7] = system: IGROV1 ovarian
[8] = system: T-47D breast
[9] = system: NCI/ADR-RES ovarian
[10] = system: SR leukemia

Row | SMILES | GI50 [1] | TGI [1] | GI50 [2] | TGI [2] | GI50 [3] | TGI [3] | GI50 [4] | TGI [4] | GI50 [5] | TGI [5] | GI50 [6] | TGI [6] | GI50 [7] | TGI [7] | GI50 [8] | TGI [8] | GI50 [9] | TGI [9] | GI50 [10] | TGI [10]
1 | COc1ccc(-c2cn(-c3cccc(C(=O)/C=C/c4ccc(O)c(OC)c4)c3)c(=O)[nH]2)cc1 | 2.69 µM | 11 µM | 2.6 µM | 10.7 µM | 3.64 µM | 40.3 µM | 4.32 µM | 48.6 µM | 3.21 µM | 10.4 µM | 1.89 µM | 4.87 µM | 3.58 µM | 18.2 µM | 3.27 µM | 40.8 µM | 2.97 µM | > 31.4 µM | 2.24 µM | > 100 µM
2 | N#Cc1ccc(C2C3=C(CCCC3=O)OC3=C2C(=O)c2ccccc2C3=O)cc1 (stereo not drawn) | 1.72 µM | 3.25 µM | 1.99 µM | 4.31 µM | 1.67 µM | 3.14 µM | 3.17 µM | 9.6 µM | 3.64 µM | 13.3 µM | 0.48 µM | 2.11 µM | 1.45 µM | 3.46 µM | 0.453 µM | 2.24 µM | 0.899 µM | 7.81 µM | 3.47 µM | > 100 µM
3 | Oc1ccc2ccccc2c1C1NN=C(c2ccccc2)S1 (stereo not drawn) | 0.342 µM | 2 µM | 0.307 µM | 13.5 µM | 0.409 µM | > 20.4 µM | 0.519 µM | 20.5 µM | 0.34 µM | 11 µM | 0.408 µM | > 34.4 µM | 0.485 µM | 30.3 µM | 0.525 µM | 33.5 µM | 0.383 µM | 62.8 µM | 0.473 µM | > 100 µM
4 | COc1ccc2c(c1)CCc1[nH]nc(-c3cc(OC)c(OC)c(OC)c3)c1-2 | < 0.01 µM | < 0.01 µM | < 0.01 µM | < 0.01 µM | < 0.01 µM | 17.3 µM | < 0.01 µM | < 0.01 µM | < 0.01 µM | 2.06 µM | < 0.01 µM | 1.16 µM | < 0.01 µM | 23.7 µM | 3.59 µM | 21.3 µM | < 0.01 µM | < 0.01 µM | < 0.01 µM | 22.9 µM
5 | c1cncc(-c2nc3ccccc3s2)c1 | > 100 µM | > 100 µM | > 100 µM | > 100 µM | 29.5 µM | > 100 µM | > 100 µM | > 100 µM | > 100 µM | > 100 µM | > 100 µM | > 100 µM | 42.6 µM | > 100 µM | > 100 µM | > 100 µM | > 100 µM | > 100 µM | > 100 µM | > 100 µM
6 | CN[C@@H]1C[C@H]2O[C@@](C)([C@@H]1OC)n1c3ccccc3c3c4c(c5c6ccccc6n2c5c31)C(=O)N[C@H]4O | 0.102 µM | 1.39 µM | 0.103 µM | 0.878 µM | 0.0116 µM | 0.0547 µM | 0.0337 µM | 0.298 µM | 0.0471 µM | 1.23 µM | 0.166 µM | 1.89 µM | 0.0188 µM | 0.102 µM | 0.00739 µM | 0.163 µM | 0.167 µM | 0.907 µM | 0.0336 µM | 1.92 µM
7 | O=CC(Br)C(Br)c1ccccc1 (stereo not drawn) | 3.58 µM | 13.8 µM | 1.72 µM | 3.56 µM | 1.48 µM | 3.07 µM | 16.6 µM | 30.3 µM | 14.5 µM | 31.2 µM | 0.225 µM | 0.523 µM | 11 µM | 26 µM | 0.942 µM | 3.17 µM | 4.77 µM | 27.7 µM | 0.445 µM | 2.81 µM
8 | O=C1C(Cl)=C(Nc2cccc(O)c2)C(=O)N1Cc1ccc(Cl)cc1 | 5.69 µM | 21.1 µM | 3.18 µM | 21.7 µM | 10.3 µM | > 100 µM | 3.7 µM | 19.9 µM | 2.87 µM | 14 µM | 3.66 µM | 25 µM | 3.93 µM | 40 µM | 10.7 µM | 54 µM | 1.58 µM | 10.2 µM | 0.358 µM | 14.8 µM
9 | CCN(CC)CCCC(C)Nc1c2ccc(Cl)cc2nc2cc(OC)c(OC)cc12 (stereo not drawn) | 1.81 µM | 3.21 µM | 2.35 µM | 5.76 µM | 1.43 µM | 2.89 µM | 2.65 µM | 8.87 µM | 1.3 µM | 4.05 µM | 0.861 µM | 4.28 µM | 2.15 µM | 9.96 µM | 7.36 µM | 32.5 µM | 2.47 µM | 9.69 µM | 1.27 µM | 13.6 µM
10 | CN1CCC(C(=O)Nc2n[nH]c3nc(-c4ccc(O)cc4)c(Br)cc23)CC1 | 0.599 µM and 1.3 µM | 2.3 µM and 4.14 µM | 0.599 µM and 0.603 µM | 1.52 µM and 1.62 µM | 6.85 µM and 7.86 µM | > 22.4 µM | 1.19 µM and 1.28 µM | > 25 µM | 1.97 µM and 1.1 µM | > 25 µM | 0.776 µM and 0.855 µM | > 25 µM | 5.13 µM and 6.36 µM | > 25 µM | 1.12 µM and 1.72 µM | > 16.9 µM | 24.9 µM and > 25 µM | > 25 µM | 0.701 µM and 0.306 µM | > 25 µM
11 | O=C(NCCCCCCNC(=O)n1cc(F)c(=O)[nH]c1=O)NCCCOCCOCCOCCOCCOCCOCCOCCOCCOCCOCCOCCOCCOCCOCCOCCOCCOCCOCCOCCOCCOCCCNC(=O)C(O)C(O)C(OC1OC(CO)C(O)C(O)C1O)C(O)CO (stereo not drawn) |  | > 100 µM |  | > 100 µM |  | > 100 µM |  | > 100 µM |  | > 100 µM |  | > 100 µM |  | > 100 µM |  | > 100 µM |  | > 100 µM |  | > 100 µM
12 | CC(=O)OCc1ccc(O)c(C=O)c1 |  | > 100 µM |  | > 100 µM |  | > 100 µM |  | > 100 µM |  | > 100 µM |  | > 100 µM |  | > 100 µM |  | > 100 µM |  | > 100 µM |  | > 100 µM
13 | Clc1cccc(N2CCN(CCN3CCc4c([nH]c5ccccc45)C3c3cccnc3)CC2)c1 (stereo not drawn) |  | > 100 µM |  | > 100 µM |  | > 100 µM |  | > 100 µM |  | > 100 µM |  | > 91.3 µM |  | > 100 µM |  | > 100 µM |  | > 100 µM |  | > 100 µM
14 | Fc1cccc(CSc2ncnc3c2ncn3C2CCCS2)c1 (stereo not drawn) |  | 22.5 µM |  | 44 µM |  | 36.2 µM |  | > 100 µM |  | 22.7 µM |  | 26.3 µM |  | > 100 µM |  | > 100 µM |  | 96.7 µM |  | 34 µM
15 | CCOc1ccc2nc(-c3cccc(OCC(=O)NC(C)C)c3)nc(Nc3ccc(-c4cn[nH]c4)cc3)c2c1 | 1.17 µM | 2.58 µM | 0.62 µM | 3.33 µM | 0.344 µM | 3.51 µM | 4.53 µM | 13 µM | 0.34 µM | 1.66 µM | 0.783 µM | 3.18 µM | 0.927 µM | 7.4 µM | 0.292 µM | 3.57 µM | 1.92 µM | 22.9 µM | 1.13 µM | > 43 µM
16 | OC(C1CO1)C(O)C1CO1 (stereo not drawn) | 43.9 µM | 85.6 µM and 164 µM | 11.3 µM | 94.8 µM and 175 µM | 37 µM | 112 µM and 199 µM | 5.68 µM | 95.2 µM and 186 µM | 2.14 µM | 53.5 µM and 140 µM | 40.2 µM | 110 µM and 209 µM | 129 µM | 149 µM and 327 µM |  | 150 µM and 425 µM | 81 µM | 123 µM and 320 µM |  | 72.2 µM and 528 µM
